Measurements from PubChem BioAssay AID1324 (NMMLSC, 2008).
Calls of active or inactive are those of the source. How the calls were made is not given here.

Each compound was assayed against glutathione S-transferase (GST-GSH binding) (assay: GST–glutathione interaction disruption – biochemical, multiplex beads, flow cytometry, HPSMTB buffer, profiling panel (AID 1324;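 further: glutathione beads loaded with GST-green fluorescent protein and no fluorescent Bim peptide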)). Settings: multiplex bead flow cytometry, MCF.
In the case of `O=c1c2c(-c3ccccc3)csc2nc2c3ccccc3c(NCCN3CCOCC3)nn12`, the EC50 is reported as 210 nM. Work on `CN(/N=C/c1ccncc1)C1=NS(=O)(=O)c2ccccc21` yielded an EC50 of 3160 nM. In the case of `CCCCNc1nc(=S)[nH]c2cc(OC)c(OC)cc12`, the EC50 is reported as “inactive”.

Same assay, conditions: multiplex bead flow cytometry, MCF, active compounds read high, concentration not given here
With `C#CCOCCOCCOCCNc1nc(N2CCN(C(=O)[C@H](CCCCN)n3cc(CCCC)nn3)CC2)nc(N2CCN(C(=O)[C@H](Cc3ccc(O)cc3)n3cc(CCO)nn3)CC2)n1` the percent span inhibition was “inactive”. For `COc1ccc(OC)c(NC(=O)CCCN2C(=S)NC(C)(C)CC2C)c1` (centres undefined), the percent span inhibition was “inactive”. `O=C(Oc1ccc(-c2cnc3ccccc3n2)cc1)c1cccc([N+](=O)[O-])c1` was tested, and the percent span inhibition was “inactive”. For `CCN1CCN(CC(=O)c2c[nH]c3ccc(C)cc23)CC1`, the percent span inhibition was “inactive”. In the case of `COCCn1nnnc1CN(Cc1ccco1)Cc1cc2cc3c(cc2[nH]c1=O)OCO3`, the percent span inhibition is reported as “inactive”. `COc1ccc(CCNC(=O)c2ccc3nc(-c4ccco4)c(-c4ccco4)nc3c2)cc1OC` was tested, and the percent span inhibition was “inactive”. In the case of `Nc1ccccc1N=c1ssnc1Cl`, the percent span inhibition is reported as “inactive”. For `CNC(=O)c1c(N)sc2c1CCCCC2`, the percent span inhibition was “inactive”. `Cc1[nH]c2ccccc2c1C(=O)COC(=O)c1c(-c2c(F)cccc2Cl)noc1C` was tested, and the percent span inhibition was “inactive”. For `S=C(NCCc1ccccc1)NCCc1ccccc1`, the percent span inhibition was “inactive”. In the case of `COc1ccc(N2CCN(C(CNS(=O)(=O)c3ccc4c(c3)OCCO4)c3ccco3)CC2)cc1` (centres undefined), the percent span inhibition is reported as “inactive”. In the case of `COc1ccccc1OCc1ccc(C(=O)Nc2ccccc2F)cc1`, the percent span inhibition is reported as “inactive”. In the case of `CCOCCCn1c(N)c(C(=O)Nc2sc3c(c2C(=O)OC)CCCC3)c2nc3ccccc3nc21`, the percent span inhibition is reported as “inactive”. `Cc1cc(/C=C(/C#N)C(=O)Nc2ccc(Cl)cc2)c(C)n1-c1cccnc1` was tested, and the percent span inhibition was “inactive”. `COc1cc(/C=C2\S/C(=N/S(=O)(=O)c3ccccc3)NC2=O)c([N+](=O)[O-])cc1OC` was tested, and the percent span inhibition was “inactive”. For `Cc1cc(-c2nnc(CCC(=O)NC(C)c3cccc4ccccc34)o2)no1` (centres undefined), the percent span inhibition was “inactive”. In the case of `COc1cc(NC(=S)NCCCO)c(OC)cc1Cl`, the percent span inhibition is reported as “inactive”. For `CC1Nc2ccccc2C(=O)N1NS(C)(=O)=O` (centres undefined), the percent span inhibition was “inactive”. In the case of `CCN1CCN(c2cc(C)c3cc(NC(=S)N4CCN(c5ccc(F)cc5)CC4)ccc3n2)CC1`, the percent span inhibition is reported as “inactive”. With `O=C(C1=NN[C@@H]2C(=O)N(c3cccc(F)c3)C(=O)[C@H]12)c1ccc2ccccc2n1` the percent span inhibition was “inactive”. In the case of `CCOC(=O)c1snc(-c2ccc(F)cc2)c1N`, the percent span inhibition is reported as “inactive”. `c1csc(C2=Nn3c(nnc3-c3ccncc3)SC2)c1` was tested, and the percent span inhibition was “inactive”. For `Cc1ccc(-c2nc(N3CCOCC3)s[n+]2-c2ccccc2)cc1`, the percent span inhibition was “inactive”. For `COc1cc(N2CCOCC2)ccc1C=C1C(=O)NC(=O)NC1=O`, the percent span inhibition was “inactive”. For `O=C1c2ccccc2C(=O)c2cc(S(=O)(=O)Nc3ccccc3)ccc21`, the percent span inhibition was “inactive”. For `O=C(OCc1nc2ccccc2[nH]1)C12CC3CC(CC(C3)C1)C2`, the percent span inhibition was “inactive”. In the case of `CC(C)CNC(=O)c1cccc(NC(=O)c2ccc(Cl)c([N+](=O)[O-])c2)c1`, the percent span inhibition is reported as “inactive”. In the case of `COc1cc2c(cc1OC)C(c1ccccc1F)OC(=O)C2` (centres undefined), the percent span inhibition is reported as “inactive”. With `CCCCOc1ccc(Cc2c(Cl)nc(SC)nc2N2CCOCC2)cc1` the percent span inhibition was “inactive”. `CCOc1ccc(CNc2ccc(N3CCCC3)cc2)cc1` was tested, and the percent span inhibition was “inactive”. For `CNC(=S)N(Cc1cccs1)Cc1cc2ccc(OC)cc2[nH]c1=O`, the percent span inhibition was “inactive”. In the case of `Cc1ccc(S(=O)(=O)N2CCCCC2)cc1NC(=O)COC(=O)c1ccccc1F`, the percent span inhibition is reported as “inactive”. `CCn1c(SCC(=O)Nc2ccc(C)cc2)nnc1-c1ccc(O)cc1` was tested, and the percent span inhibition was “inactive”. In the case of `CCOC(=O)N1CCC(c2cc(=O)n(-c3ccccc3)[nH]2)CC1`, the percent span inhibition is reported as “inactive”. With `O=C(CSc1ccc2nnc(-c3ccncc3)n2n1)Nc1nccs1` the percent span inhibition was “inactive”. With `CCc1ccc(/C=C/C(=O)c2cc(Br)ccc(=O)c2O)cc1` the percent span inhibition was “inactive”. For `CN=C(NC1CCCCC1)c1ccc(Cl)cc1`, the percent span inhibition was “inactive”. `OC(CNC1CCCCC1)COCCOc1ccc(Br)cc1` (centres undefined) was tested, and the percent span inhibition was “inactive”. In the case of `NC(=O)c1c(NC(=O)C2CCCO2)sc2c1CCCC2` (centres undefined), the percent span inhibition is reported as “inactive”. For `CCN1/C(=C/c2ccc3cc(C)ccc3[n+]2CC)Sc2cc(C)c(C)cc21`, the percent span inhibition was “inactive”. With `CCOc1ccc2nc(SCC(=O)N3c4ccccc4Sc4ccccc43)c(C#N)cc2c1` the percent span inhibition was “inactive”. In the case of `Cc1nc2cc(F)ccc2n1C1CCN(C(=O)c2c(F)cccc2F)CC1`, the percent span inhibition is reported as “inactive”. With `Cc1ccc(CC(=O)OCCNC(=O)c2cccnc2)cc1` the percent span inhibition was “inactive”. For `O=C(CSc1nnc(-c2ccccc2)c(-c2ccccc2)n1)N1CCc2ccccc21`, the percent span inhibition was “inactive”. In the case of `Cc1ccc(/C=C2\CCCC3=C2NC(=S)NC3c2ccc(C)cc2)cc1` (centres undefined), the percent span inhibition is reported as “inactive”. In the case of `O=C(OCC(=O)c1ccc[nH]1)c1ccccc1`, the percent span inhibition is reported as “inactive”. With `COc1cccc2c(SCC(=O)N/N=C/c3ccccc3)cc(C)nc12` the percent span inhibition was “inactive”. In the case of `Cc1nc(NC(=O)CC(C)C)sc1-c1csc(Nc2ccc(Cl)cc2)n1`, the percent span inhibition is reported as “inactive”. In the case of `O=C(Nc1cccc(C(F)(F)F)c1)c1ccc2nc(-c3ccco3)c(-c3ccco3)nc2c1`, the percent span inhibition is reported as “inactive”. `C=CS(=O)c1sc(Cl)c(N2CCOCC2)c1[N+](=O)[O-]` (centres undefined) was tested, and the percent span inhibition was “inactive”. In the case of `Nc1ccc(Nc2nc(-c3ccncc3)cs2)cc1`, the percent span inhibition is reported as “inactive”. For `CCOC(=O)C1(Cc2cccc(OC)c2)CCN(Cc2cccc(OC)c2OC)CC1`, the percent span inhibition was “inactive”. `COc1ccc(CC(=O)Nc2ccc(-c3nc4cc(C)ccc4o3)c(O)c2)cc1OC` was tested, and the percent span inhibition was “inactive”. With `CSc1nnc2c3cc(C)ccc3n(Cc3ccccc3)c2n1` the percent span inhibition was “inactive”. With `CCN(CC)c1ccc(NC(=O)c2cccc(C)c2)cc1S(=O)(=O)Nc1ccccc1OC` the percent span inhibition was “inactive”. With `CCOC(=O)c1nn(-c2ccccc2)c(C#N)c1N` the percent span inhibition was “inactive”.
